Test results reported in ChEMBL document CHEMBL3046887, “Microwave-irradiated synthesis and antimicrobial activity of 2-phenyl-7-substitutedalkyl/arylaminoquinoline-4-carboxylic acid derivatives” (2010).
Activity calls are given as the source filed them. The calls are words filed in the database; no cut-off is given here.

Assays:
Assay type in all cases: functional
Streptococcus pyogenes [1] = experiment: Antibacterial activity against Streptococcus pyogenes MTCC 442 at 10 ug/well after 24 hr by agar well diffusion method; conditions: for zone of inhibition at 10 µg/disc: MTCC 442, 24 h, read-out: DIZ
Pseudomonas aeruginosa [2] = experiment: Antibacterial activity against Pseudomonas aeruginosa MTCC 741 at 10 ug/well after 24 hr by agar well diffusion method; conditions: for zone of inhibition at 10 µg/disc: MTCC 741, 24 h, read-out: DIZ
Bacillus cereus = experiment: Antibacterial activity against Bacillus cereus MTCC 430 at 10 ug/well after 24 hr by agar well diffusion method; conditions: for zone of inhibition at 10 µg/disc: MTCC 430, 24 h, read-out: DIZ
Pseudomonas oleovorans = experiment: Antibacterial activity against Pseudomonas oleovorans MTCC 617 at 10 ug/well after 24 hr by agar well diffusion method; conditions: Ectopseudomonas oleovorans; for zone of inhibition at 10 µg/disc: MTCC 617, 24 h, read-out: DIZ
Klebsiella pneumoniae = experiment: Antibacterial activity against Klebsiella pneumoniae MTCC 109 at 10 ug/well after 24 hr by agar well diffusion method; conditions: for zone of inhibition at 10 µg/disc: MTCC 109, 24 h, read-out: DIZ
Escherichia coli = experiment: Antibacterial activity against Escherichia coli MTCC 1652 at 10 ug/well after 24 hr by agar well diffusion method; conditions: for zone of inhibition at 10 µg/disc: MTCC 1652, 24 h, read-out: DIZ
Staphylococcus aureus = experiment: Antibacterial activity against Staphylococcus aureus MTCC 737 at 10 ug/well after 24 hr by agar well diffusion method; conditions: for zone of inhibition at 10 µg/disc: MTCC 737, 24 h, read-out: DIZ
Enterococcus faecalis = experiment: Antibacterial activity against Enterococcus faecalis MTCC 439 at 10 ug/well after 24 hr by agar well diffusion method; conditions: for zone of inhibition at 10 µg/disc: MTCC 439, 24 h, read-out: DIZ
Bacillus subtilis = experiment: Antibacterial activity against Bacillus subtilis MTCC 2397 at 10 ug/well after 24 hr by agar well diffusion method; conditions: for zone of inhibition at 10 µg/disc: MTCC 2397, 24 h, read-out: DIZ
Bacillus pumilus = experiment: Antibacterial activity against Bacillus pumilus MTCC 1640 at 10 ug/well after 24 hr by agar well diffusion method; conditions: for zone of inhibition at 10 µg/disc: MTCC 1640, 24 h, read-out: DIZ
Streptococcus pyogenes [3] = experiment: Antibacterial activity against Streptococcus pyogenes MTCC 442 after 24 hr by agar dilution method
Pseudomonas aeruginosa [4] = experiment: Antibacterial activity against Pseudomonas aeruginosa MTCC 741 after 24 hr by agar dilution method

Compound	zone of inhibition at 10 µg/disc (Streptococcus pyogenes [1])	zone of inhibition at 10 µg/disc (Pseudomonas aeruginosa [2])	zone of inhibition at 10 µg/disc (Bacillus cereus)	zone of inhibition at 10 µg/disc (Pseudomonas oleovorans)	zone of inhibition at 10 µg/disc (Klebsiella pneumoniae)	zone of inhibition at 10 µg/disc (Escherichia coli)	zone of inhibition at 10 µg/disc (Staphylococcus aureus)	zone of inhibition at 10 µg/disc (Enterococcus faecalis)	zone of inhibition at 10 µg/disc (Bacillus subtilis)	zone of inhibition at 10 µg/disc (Bacillus pumilus)	also measured
CC1COc2c(N3CCN(C)CC3)c(F)cc3c(=O)c(C(=O)O)cn1c23 (centres undefined) [OFLOXACIN]	17 mm	16 mm	16 mm	17 mm	19 mm	17 mm	16 mm	16 mm	17 mm	17 mm	–
O=C(O)c1cc(-c2ccccc2)nc2cc(Nc3ccncc3)ccc12	–	5 mm	5 mm	4 mm	4 mm	4 mm	3 mm	7 mm	5 mm	6 mm	diameter of the inhibition zone (DIZ) (Streptococcus pyogenes [1]): inactive
O=C(O)c1cc(-c2ccccc2)nc2cc(Nc3ccc([N+](=O)[O-])cc3)ccc12	2 mm	–	9 mm	8 mm	–	12 mm	7 mm	3 mm	5 mm	11 mm	diameter of the inhibition zone (DIZ) (Pseudomonas aeruginosa [2]): inactive; diameter of the inhibition zone (DIZ) (Klebsiella pneumoniae): inactive
O=C(O)c1cc(-c2ccccc2)nc2cc(Nn3cnnc3)ccc12	–	–	3 mm	4 mm	4 mm	3 mm	2 mm	3 mm	–	2 mm	diameter of the inhibition zone (DIZ) (Streptococcus pyogenes [1]): inactive; diameter of the inhibition zone (DIZ) (Pseudomonas aeruginosa [2]): inactive; diameter of the inhibition zone (DIZ) (Bacillus subtilis): inactive
NS(=O)(=O)c1ccc(Nc2ccc3c(C(=O)O)cc(-c4ccccc4)nc3c2)cc1	5 mm	4 mm	5 mm	11 mm	–	8 mm	9 mm	5 mm	5 mm	2 mm	diameter of the inhibition zone (DIZ) (Klebsiella pneumoniae): inactive
GENTAMICIN	–	–	–	–	–	–	–	–	–	–	inhibition zone (IZ) (Streptococcus pyogenes [1]): 17 mm; inhibition zone (IZ) (Pseudomonas aeruginosa [2]): 19 mm; inhibition zone (IZ) (Bacillus cereus): 17 mm; inhibition zone (IZ) (Pseudomonas oleovorans): 19 mm; inhibition zone (IZ) (Klebsiella pneumoniae): 16 mm; inhibition zone (IZ) (Escherichia coli): 16 mm; inhibition zone (IZ) (Staphylococcus aureus): 16 mm; inhibition zone (IZ) (Enterococcus faecalis): 18 mm; inhibition zone (IZ) (Bacillus subtilis): 19 mm; inhibition zone (IZ) (Bacillus pumilus): 17 mm
NC(=O)Nc1ccc2c(C(=O)O)cc(-c3ccccc3)nc2c1	9 mm	9 mm	10 mm	9 mm	6 mm	7 mm	9 mm	6 mm	9 mm	6 mm	–
O=C(O)c1cc(-c2ccccc2)nc2cc(N3CCNCC3)ccc12	7 mm	4 mm	5 mm	11 mm	6 mm	10 mm	4 mm	7 mm	2 mm	5 mm	–
NC(=S)Nc1ccc2c(C(=O)O)cc(-c3ccccc3)nc2c1	5 mm	12 mm	5 mm	7 mm	–	5 mm	9 mm	9 mm	–	3 mm	diameter of the inhibition zone (DIZ) (Klebsiella pneumoniae): inactive; diameter of the inhibition zone (DIZ) (Bacillus subtilis): inactive
O=C(O)c1cc(-c2ccccc2)nc2cc(Cl)ccc12	4 mm	2 mm	4 mm	6 mm	3 mm	7 mm	–	7 mm	5 mm	8 mm	diameter of the inhibition zone (DIZ) (Staphylococcus aureus): inactive
O=C(O)c1cc(-c2ccccc2)nc2cc(Nc3nccs3)ccc12	13 mm	15 mm	13 mm	13 mm	5 mm	7 mm	10 mm	12 mm	9 mm	12 mm	MIC (Streptococcus pyogenes [3]): 5 µg; MIC (Pseudomonas aeruginosa [4]): 3 µg
O=C(O)c1cc(-c2ccccc2)nc2cc(Nc3ccccc3)ccc12	7 mm	4 mm	10 mm	12 mm	5 mm	10 mm	8 mm	9 mm	9 mm	5 mm	MIC (Streptococcus pyogenes [3]): 4 µg; MIC (Pseudomonas aeruginosa [4]): 9 µg
COc1ccc(Nc2ccc3c(C(=O)O)cc(-c4ccccc4)nc3c2)cc1	5 mm	8 mm	4 mm	5 mm	3 mm	3 mm	2 mm	8 mm	4 mm	3 mm	–
Cc1ccc(Nc2ccc3c(C(=O)O)cc(-c4ccccc4)nc3c2)cc1	7 mm	3 mm	6 mm	8 mm	3 mm	8 mm	5 mm	9 mm	6 mm	9 mm	–
O=C(O)CNc1ccc2c(C(=O)O)cc(-c3ccccc3)nc2c1	5 mm	4 mm	4 mm	8 mm	5 mm	2 mm	–	7 mm	–	2 mm	diameter of the inhibition zone (DIZ) (Staphylococcus aureus): inactive; diameter of the inhibition zone (DIZ) (Bacillus subtilis): inactive
